From patent US12077503B2, “Substituted cyclic amides and their use as herbicides” (FMC CORPORATION, priority 2015, dated 2024)

Legend:
Format in all cases: in vivo
corn (Zea mays) [1] = assay: Test G Post-Emergence Protocol; conditions: Zea mays, post-emergence, 312 h, read-out: Corn damage rating; for plant injury at 15.625 g/ha: 15.625 g ai/ha, evaluated after 13 days (100=total damage to plant; 0=no damage to plant); for plant injury at 62.5 g/ha: 62.5 g ai/ha; for plant injury at 62.5 g/ha / plant injury at 250 g/ha: evaluated after 13 days, 100=total damage to plant, 0=no damage to plant; for plant injury at 250 g/ha: 250 g ai/ha
Summary of the method: (§1)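 Sow in soil; grow 8 d (24/16 °C, 14 h light, 65% humidity); spray 15.625/62.5/250 g/ha in acetone:water 50:50 + 0.5% Tween 20; grow on, water twice daily; score damage 0–100 at 13 d.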

[2] = test system: redroot pigweed (Amaranthus retroflexus); assay: Test G Post-Emergence Protocol; conditions: Amaranthus retroflexus, post-emergence, 312 h, read-out: Pigweed, Redroot damage rating; for pest or weed control at 15.625 g/ha: 15.625 g ai/ha, evaluated after 13 days (100=total damage to plant; 0=no damage to plant); for pest or weed control at 62.5 g/ha: 62.5 g ai/ha; for pest or weed control at 62.5 g/ha / pest or weed control at 250 g/ha: evaluated after 13 days, 100=total damage to plant, 0=no damage to plant; for pest or weed control at 250 g/ha: 250 g ai/ha
Summary of the method: as §1

[3] = test system: ivy-leaved morning glory (Ipomoea hederacea); assay: Test G Post-Emergence Protocol; conditions: Ipomoea, post-emergence, 312 h, read-out: Morningglory, Ivy-leaved damage rating; for pest or weed control at 15.625 g/ha: 15.625 g ai/ha, evaluated after 13 days (100=total damage to plant; 0=no damage to plant); for pest or weed control at 62.5 g/ha: 62.5 g ai/ha; for pest or weed control at 62.5 g/ha / pest or weed control at 250 g/ha: evaluated after 13 days, 100=total damage to plant, 0=no damage to plant; for pest or weed control at 250 g/ha: 250 g ai/ha
Summary of the method: as §1

[4] = test system: velvetleaf (Abutilon theophrasti); assay: Test G Post-Emergence Protocol; conditions: Abutilon theophrasti, post-emergence, 312 h, read-out: Velvetleaf damage rating; for pest or weed control at 15.625 g/ha: 15.625 g ai/ha, evaluated after 13 days (100=total damage to plant; 0=no damage to plant); for pest or weed control at 62.5 g/ha: 62.5 g ai/ha; for pest or weed control at 62.5 g/ha / pest or weed control at 250 g/ha: evaluated after 13 days, 100=total damage to plant, 0=no damage to plant; for pest or weed control at 250 g/ha: 250 g ai/ha
Summary of the method: as §1

[5] = test system: barnyardgrass (Echinochloa crus-galli); assay: Test G Post-Emergence Protocol; conditions: Echinochloa crus-galli, post-emergence, 312 h, read-out: Barnyardgrass damage rating; for pest or weed control at 15.625 g/ha: 15.625 g ai/ha, evaluated after 13 days (100=total damage to plant; 0=no damage to plant); for pest or weed control at 62.5 g/ha: 62.5 g ai/ha; for pest or weed control at 62.5 g/ha / pest or weed control at 250 g/ha: evaluated after 13 days, 100=total damage to plant, 0=no damage to plant; for pest or weed control at 250 g/ha: 250 g ai/ha
Summary of the method: as §1

[6] = test system: giant foxtail (Setaria faberi); assay: Test G Post-Emergence Protocol; conditions: Setaria faberi, post-emergence, 312 h, read-out: Foxtail, Giant damage rating; for pest or weed control at 15.625 g/ha: 15.625 g ai/ha, evaluated after 13 days (100=total damage to plant; 0=no damage to plant); for pest or weed control at 62.5 g/ha: 62.5 g ai/ha; for pest or weed control at 62.5 g/ha / pest or weed control at 250 g/ha: evaluated after 13 days, 100=total damage to plant, 0=no damage to plant; for pest or weed control at 250 g/ha: 250 g ai/ha
Summary of the method: as §1

corn (Zea mays) [7] = assay: Test G Pre-Emergence Protocol; conditions: Zea mays, pre-emergence, 312 h, evaluated after 13 days; for plant injury at 15.625 g/ha: 15.625 g ai/ha; for plant injury at 15.625 g/ha / plant injury at 250 g/ha: read-out: Corn damage rating (100=total damage to plant; 0=no damage to plant); for plant injury at 62.5 g/ha: 62.5 g ai/ha, 100=total damage to plant, 0=no damage to plant, read-out: Corn damage rating; for plant injury at 250 g/ha: 250 g ai/ha
Summary of the method: (§2)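 Herbicidal effect was rated 13 days post-application on a scale where 100 equals total damage. Spraying took place the day after sowing, using 15.625, 62.5 or 250 g/ha of compound in a 50:50 acetone/water solution with 0.5% Tween 20.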

[8] = test system: redroot pigweed (Amaranthus retroflexus); assay: Test G Pre-Emergence Protocol; conditions: Amaranthus retroflexus, pre-emergence, 312 h, evaluated after 13 days; for pest or weed control at 15.625 g/ha: 15.625 g ai/ha; for pest or weed control at 15.625 g/ha / pest or weed control at 250 g/ha: read-out: Pigweed, Redroot damage rating (100=total damage to plant; 0=no damage to plant); for pest or weed control at 62.5 g/ha: 62.5 g ai/ha, 100=total damage to plant, 0=no damage to plant, read-out: Pigweed, Redroot damage rating; for pest or weed control at 250 g/ha: 250 g ai/ha
Summary of the method: as §2

[9] = test system: ivy-leaved morning glory (Ipomoea hederacea); assay: Test G Pre-Emergence Protocol; conditions: Ipomoea, pre-emergence, 312 h, evaluated after 13 days; for pest or weed control at 15.625 g/ha: 15.625 g ai/ha; for pest or weed control at 15.625 g/ha / pest or weed control at 250 g/ha: read-out: Morningglory, Ivy-leaved damage rating (100=total damage to plant; 0=no damage to plant); for pest or weed control at 62.5 g/ha: 62.5 g ai/ha, 100=total damage to plant, 0=no damage to plant, read-out: Morningglory, Ivy-leaved damage rating; for pest or weed control at 250 g/ha: 250 g ai/ha
Summary of the method: as §2

[10] = test system: velvetleaf (Abutilon theophrasti); assay: Test G Pre-Emergence Protocol; conditions: Abutilon theophrasti, pre-emergence, 312 h, evaluated after 13 days; for pest or weed control at 15.625 g/ha: 15.625 g ai/ha; for pest or weed control at 15.625 g/ha / pest or weed control at 250 g/ha: read-out: Velvetleaf damage rating (100=total damage to plant; 0=no damage to plant); for pest or weed control at 62.5 g/ha: 62.5 g ai/ha, 100=total damage to plant, 0=no damage to plant, read-out: Velvetleaf damage rating; for pest or weed control at 250 g/ha: 250 g ai/ha
Summary of the method: as §2

[11] = test system: barnyardgrass (Echinochloa crus-galli); assay: Test G Pre-Emergence Protocol; conditions: Echinochloa crus-galli, pre-emergence, 312 h, evaluated after 13 days; for pest or weed control at 15.625 g/ha: 15.625 g ai/ha; for pest or weed control at 15.625 g/ha / pest or weed control at 250 g/ha: read-out: Barnyardgrass damage rating (100=total damage to plant; 0=no damage to plant); for pest or weed control at 62.5 g/ha: 62.5 g ai/ha, 100=total damage to plant, 0=no damage to plant, read-out: Barnyardgrass damage rating; for pest or weed control at 250 g/ha: 250 g ai/ha
Summary of the method: as §2

[12] = test system: giant foxtail (Setaria faberi); assay: Test G Pre-Emergence Protocol; conditions: Setaria faberi, pre-emergence, 312 h, evaluated after 13 days; for pest or weed control at 15.625 g/ha: 15.625 g ai/ha; for pest or weed control at 15.625 g/ha / pest or weed control at 250 g/ha: read-out: Foxtail, Giant damage rating (100=total damage to plant; 0=no damage to plant); for pest or weed control at 62.5 g/ha: 62.5 g ai/ha, 100=total damage to plant, 0=no damage to plant, read-out: Foxtail, Giant damage rating; for pest or weed control at 250 g/ha: 250 g ai/ha
Summary of the method: as §2

Row | SMILES | plant injury at 15.625 g/ha (corn (Zea mays) [1]) | plant injury at 62.5 g/ha (corn (Zea mays) [1]) | plant injury at 250 g/ha (corn (Zea mays) [1]) | pest or weed control at 15.625 g/ha [2] | pest or weed control at 62.5 g/ha [2] | pest or weed control at 250 g/ha [2] | pest or weed control at 15.625 g/ha [3] | pest or weed control at 62.5 g/ha [3] | pest or weed control at 250 g/ha [3] | pest or weed control at 15.625 g/ha [4] | pest or weed control at 62.5 g/ha [4] | pest or weed control at 250 g/ha [4] | pest or weed control at 15.625 g/ha [5] | pest or weed control at 62.5 g/ha [5] | pest or weed control at 250 g/ha [5] | pest or weed control at 15.625 g/ha [6] | pest or weed control at 62.5 g/ha [6] | pest or weed control at 250 g/ha [6] | plant injury at 15.625 g/ha (corn (Zea mays) [7]) | plant injury at 62.5 g/ha (corn (Zea mays) [7]) | further results
1 | COc1cc(C2CN(C)C(=O)C2C(=O)Nc2cccc(F)c2F)cc(OC)c1F (stereo not drawn) [Compound 1711] | 0% | 10% | 40% | 0% | 0% | 0% | 10% | 30% | 70% | 0% | 0% | 0% | 30% | 70% | 80% | 70% | 80% | 80% | 0% | 0% | plant injury at 250 g/ha (corn (Zea mays) [7]): 20%; pest or weed control at 15.625 g/ha [8]: 0%; pest or weed control at 62.5 g/ha [8]: 0%; pest or weed control at 250 g/ha [8]: 0%; pest or weed control at 15.625 g/ha [9]: 0%; pest or weed control at 62.5 g/ha [9]: 10%; pest or weed control at 250 g/ha [9]: 10%; pest or weed control at 15.625 g/ha [10]: 0%; pest or weed control at 62.5 g/ha [10]: 0%; pest or weed control at 250 g/ha [10]: 0%; pest or weed control at 15.625 g/ha [11]: 30%; pest or weed control at 62.5 g/ha [11]: 10%; pest or weed control at 250 g/ha [11]: 80%; pest or weed control at 15.625 g/ha [12]: 70%; pest or weed control at 62.5 g/ha [12]: 70%; pest or weed control at 250 g/ha [12]: 90%
2 | Cc1cc(C2CN(C)C(=O)C2C(=O)Nc2cccc(F)c2F)cc(C)c1F (stereo not drawn) [Compound 1712] | 40% | 70% | 70% | 0% | 20% | 20% | 10% | 30% | 70% | 10% | 10% | 40% | 50% | 80% | 90% | 80% | 80% | 80% | 0% | 10% | plant injury at 250 g/ha (corn (Zea mays) [7]): 70%; pest or weed control at 15.625 g/ha [8]: 10%; pest or weed control at 62.5 g/ha [8]: 0%; pest or weed control at 250 g/ha [8]: 10%; pest or weed control at 15.625 g/ha [9]: 0%; pest or weed control at 62.5 g/ha [9]: 0%; pest or weed control at 250 g/ha [9]: 20%; pest or weed control at 15.625 g/ha [10]: 0%; pest or weed control at 62.5 g/ha [10]: 0%; pest or weed control at 250 g/ha [10]: 20%; pest or weed control at 15.625 g/ha [11]: 60%; pest or weed control at 62.5 g/ha [11]: 80%; pest or weed control at 250 g/ha [11]: 90%; pest or weed control at 15.625 g/ha [12]: 80%; pest or weed control at 62.5 g/ha [12]: 90%; pest or weed control at 250 g/ha [12]: 90%
3 | COc1cc(C2CN(C)C(=O)C2C(=O)Nc2cccc(F)c2F)cc(C)c1C (stereo not drawn) [Compound 1713] | 0% | 50% | 80% | 0% | 0% | 0% | 20% | 60% | 70% | 0% | 0% | 20% | 10% | 80% | 80% | 60% | 80% | 80% | 10% | 20% | plant injury at 250 g/ha (corn (Zea mays) [7]): 90%; pest or weed control at 15.625 g/ha [8]: 0%; pest or weed control at 62.5 g/ha [8]: 0%; pest or weed control at 250 g/ha [8]: 0%; pest or weed control at 15.625 g/ha [9]: 0%; pest or weed control at 62.5 g/ha [9]: 0%; pest or weed control at 250 g/ha [9]: 0%; pest or weed control at 15.625 g/ha [10]: 0%; pest or weed control at 62.5 g/ha [10]: 0%; pest or weed control at 250 g/ha [10]: 0%; pest or weed control at 15.625 g/ha [11]: 30%; pest or weed control at 62.5 g/ha [11]: 70%; pest or weed control at 250 g/ha [11]: 90%; pest or weed control at 15.625 g/ha [12]: 50%; pest or weed control at 62.5 g/ha [12]: 70%; pest or weed control at 250 g/ha [12]: 90%
